Data taken from ChEMBL document CHEMBL1156348, “Coumarins with monoamine oxidase inhibitory activity and antioxidative coumarino-lignans from Hibiscus syriacus” (J Nat Prod, 2001).
Converted amounts (≈) assume the structure as drawn. The source made the active and inactive calls. The calls are words filed in the database; no cut-off is given here.

Legend:
Liver microsomes = assay: Antioxidant activity in rat liver microsomes assessed as inhibition of lipid peroxidation by TBA method; assay type: functional, Microsome
[1] = Inhibition of mouse brain monoamine oxidase by Krajl method
Mus musculus = species: Mus musculus; assay: Inhibition of mouse brain monoamine oxidase up to 70 ug/mL by Krajl method

Compound	IC50 (Liver microsomes) [µg/mL]	IC50 [1] [µg/mL]	Activity (Mus musculus)
COc1cc([C@H]2Oc3c(OC)cc4ccc(=O)oc4c3O[C@@H]2CO)ccc1O [CLEOMISCOSIN A]	9 (≈ 23.3 µM)		
COc1cc([C@@H]2Oc3c(c(OC)cc4ccc(=O)oc34)O[C@H]2CO)cc(OC)c1O [CLEOMISCOSIN D]	5.5 (≈ 13.2 µM)		
VITAMIN E	0.8		
COc1c(OC)c(O)c2oc(=O)ccc2c1OC		44.5 (≈ 176 µM)	
COc1cc2ccc(=O)oc2cc1O [SCOPOLETIN]		19.4 (≈ 101 µM)	
COc1cc([C@H]2Oc3c(OC)cc4ccc(=O)oc4c3O[C@@H]2C)cc(OC)c1O	1.4 (≈ 3.5 µM)		inactive
COc1cc([C@H]2Oc3c(OC)cc4ccc(=O)oc4c3O[C@@H]2CO)cc(OC)c1O [CLEOMISCOSIN C]	0.7 (≈ 1.68 µM)		
